Patent US20070275953A1 (priority 2003, published 2007)
Where two headings read alike, the source gives them in different places.

What was measured:
[1] = biological target: T1, HIV-1 reverse transcriptase (Human immunodeficiency virus type 1 group M subtype B, UniProt P04585); assay: HIV-1 in vitro reverse transcriptase activity (fixed-time RNA dependent DNA polymerase assay); format: biochemical; details: residual RT activity, compound at 10 μM; RT activity without compound set at 100%
T1 construct: fixed-time assay for HIV-1 reverse transcriptase RNA dependent DNA polymerase activity; RT was purchased from Calbiochem; purchased Calbiochem CAL382129-500
Procedure: For the in vitro inhibition studies of the HIV-1 reverse transcriptase activity, stock solutions of the compounds of the present invention were prepared in dimethyl sulfoxide at a final concentration of 10 mM and kept at room temperature. Nevirapine was purchased from Boehringer Ingelheim. Efavirenz was received from the NIH AIDS Research and Reference Reagent Program.
In vitro inhibition studies used a fixed-time assay for HIV-1 reverse transcriptase RNA dependent DNA polymerase activity. RT was purchased from Calbiochem (ref CAL382129-500). One unit of RT corresponds to the amount of enzyme which incorporates one nanomole of [^3H]TTP in 10 minutes at 37° C.
Assays were performed in a final volume of 50 μl. […] Reaction mixtures were incubated at 37° C. for 10 min. The incorporation rate was determined by a standard trichloroacetic acid precipitation procedure (adapted from Current protocols in molecular biology. Eds Wiley, MGH Harvard medical school) and liquid scintillation counting using a Wallac scintillation counter.
The in vitro activity of the compounds, at a final concentration of 10 μM, on the reverse transcriptase (RT) activity of HIV-1 is derivable from the relative (%) reduction in RT activity. Hereby, the RT activity in the absence of any of the compounds is set at 100%.

[2] = test system: HIV-1 with WT (wild type) RT in P4 cells; assay: Anti-HIV assay on P4 cell line, WT RT; format: cell-based; details: P4 cell line, WT RT; for EC50: read-out: EC50 WT
Procedure: (§1) For the antiviral and the cytotoxicity assays, the drugs were diluted in complete DMEM medium. In these experiments, drugs were diluted in triplicate wells in a 96-well plate in six, 5 fold serial dilutions.
(§2) Two days later, co-cultivation with SupT1 cells (a human T-cell lymphoma cell line) was initiated to facilitate rapid production of progeny virions. Production of virus was measured by using the Innotest HIV Antigen mAb p24 kit (Innogenetics). At the peak of production cultures were harvested and filtered. The virus stocks were stored at −80° C. until used.
Anti-HIV activity and cytotoxicity of the compounds were tested on a P4 cell line. […] The P4 cells were cultured in complete DMEM medium supplemented with 10% fetal bovine serum (FBS), 0.5% of Penicillin/Streptomycin and G418 at 0.5 mg/ml. Exponentially growing cells were trypsinized, centrifuged and split twice weekly at 5.10^4 cells/ml.
The P4 cells are HIV-infectible Hela-CD4 cells that carry the bacterial lacZ gene under the control of the HIV-1 long terminal repeat (LTR). In this cell line, transcription of the LacZ gene is driven by the HIV-1 LTR. […] In other words, in this system, the expression level of the β-galactosidase gene is proportional to the viral replication.
Briefly, in the anti-HIV assay 100 Ål of P4 cells were plated in 96-well plate at a concentration of 0.4 10^5 cells/ml and incubated at 37° C., 5% CO2. After 48 h, the medium was removed and 100 Ål of the different drugs dilutions were added to the cells. Four hours after the addition of the drugs all cells were infected with equal amount of cell-free virus, corresponding to 100 ng of HIV p24 antigen. After 48 h of incubation at 37° C., 5% CO2, β-galactosidase activity was measured using chlorophenol red-β-D-galactopyranoside assays.
Each assay was performed a minimum of three times. The 50% effective concentration (Ec50) was calculated from each dose response curve using the CurveExpert 1.3 software.

[3] = Cytotoxicity (CC50), MTT assay on P4 cells; format: cell-based; details: human
Procedure: as §1
(§3) The 50% cytotoxic concentration (CCso) was determined using a protocol adapted from Pauwels et al. (1988. J. Virol. Methods 20(4):309-21). Briefly, flat bottom 96-well plates were filled with 50 μl of complete medium containing 5.10^3 P4 cells. 2 hours later 50 μl of drug solution were added to the cells. Drugs (dissolved in DMEM, see above) were diluted in six, 5-fold serial dilutions from stock solutions in triplicate wells of a 96-well plate. Cells and compounds were incubated at 37° C. in growth medium for 3 days. Cell viability was determined by MTT assays using the Roche Cell Proliferation KIT. The absorbance (λ=570 nm) was measured on a Benchmark™ Microplate Reader (Biorad) and compared with 12 cell control replicates (no drug added). Each assay was performed at least three times for a total of at least nine replicate wells. This method detects both cytostatic and cytolytic effects of drugs.

[4] = test system: HIV-1 with WT (wild type) RT in MT4 cells; assay: Anti-HIV assay on MT4 cell line, WT RT; format: cell-based
Procedure: as §2, with “Wurzburg Jurkat T cells (subclone JR) were transfected with 10 μg of the circularly permuted infectious molecular clone HIVNL4-3 (Adachi et al., 1986. J. Virol, 59 (2), p 284-291). Two” for “Two”
Anti-HIV activity of the compounds was tested on MT-4 cell line. The MT-4 cell line (Larder et al. 1989. Sciences, Vol. 243 p 1731) was received from the NIH AIDS Research and Reference Reagent Program. These cells were cultured in RPMI medium supplemented with 10% fetal bovine serum (FBS), and 1% Penicillin/Streptomycin. The cultures were split regularly to keep cells densities between 0.3 to 1.2 10^6 cells/ml.
The MT-4 cells rapidly die upon infection by HIV. In this system there is an inverse correlation between cells survival and the amount of viral replication.
Briefly, in the anti-HIV assay exponentially growing MT-4 cells were infected with HIV-1. 100 μl of infected MT-4 cells were seeded in 96-well plate at a concentration of 0.4 10^5 cells/ml, and 100 μl of the different drugs dilutions were added to the cells. After 4 days of incubation at 37° C., 5% CO2, cells survival was measured using MTS (3-(4-5-dimethylthiazol-2-yl)-5-(−(3-carboxymethoxyphenyl)-2-(4-sulfophenyl)-2H-tetrazolium) assays. This compound is reduced by viable cells in a colored soluble formazan salt.
The absorbance was measured on a Benchmark™ Microplate Reader (Biorad) (λ=490 nm) and compared with 12 cell control replicates (nor virus nor drug added) and 12 virus control wells (no drug added). Each assay was performed a minimum of three times. The 50% effective concentration (EC50) was calculated from each dose response curve using the CurveExpert 1.3 software.

[5] = test system: HIV-1 with WT (wild type) RT in PBMC; assay: Anti-HIV assay on PBMC, WT RT (p24); format: cell-based
Procedure: as §2, with “Wurzburg Jurkat T cells (subclone JR) were transfected with 10 μg of the circularly permuted infectious molecular clone HIVNL4-3 (Adachi et al., 1986. J. Virol, 59 (2), p 284-291). Two” for “Two”
Anti-HIV activity of the compounds was tested on Peripheral Blood Mononuclear Cells (PBMCs). These cells were separated from the blood of healthy donor using established procedures. PBMCs were cultured in RPMI medium supplemented with 10% fetal bovine serum (FBS), 1% Penicillin/Streptomycin and 20 U/ml of Interleukin-2.
PBMCs isolated from the blood of healthy donor contain CD4^+ T-lymphocytes which are one of the main targets of HIV in infected individuals.
Briefly, in the anti-HIV assay PBMCs, activated with phytohemagglutinin, were infected with HIV-1. 100 μl of infected PBMCs were seeded in 96-well plate at a concentration of 1 10^5 cells/ml, and 100 μl of the different drugs dilutions were added to the cells. After 4 days of incubation at 37° C., 5% CO2, cells cultures supernatants were collected. The amount of the viral capsid protein p24 in the supernatants was measured using the Innotest HIV Antigen mAb P24 kit (Innogenetics).

[6] = biological target: T1, HIV-1 reverse transcriptase; assay: RT inhibition as a function of preincubation time with the RT; format: biochemical
Source text: Z122 seems to be an irreversible inhibitor of the reverse transcriptase.

[7] = biological target: T1, HIV-1 reverse transcriptase; assay: RT activity after separation of unbound compound on micro-spin desalting column; format: biochemical; details: after preincubation with RT
Procedure: After the preincubation, the unbound Z122 and the RT were separated using a micro-spin desalting column.

P4 cells = assay: Cytotoxicity (CC50), MTT assay on P4 cells; format: cell-based; details: 3 days
Procedure: as §1, §3

| SMILES | Relative (%) RT activity in vitro (compound added at 10 μM) [1] [%] | EC50 ([2]; Human immunodeficiency virus 1) [nM] | SI (selectivity index = CC50/EC50) [2] | CC50 at 3 days [3] [nM] | EC50 ([4]; Human immunodeficiency virus 1) [nM] | EC50 ([5]; Human immunodeficiency virus 1) [nM] | dependence of RT inhibition on time of (pre)incubation with the RT [6] | change in RT activity after separation of unbound compound (micro-spin desalting column) [7] | melting point [°C] | EC50 [2] [nM] | CC50 (P4 cells) [nM] | EC50 [4] [nM] | EC50 [5] [nM] |
| --- | --- | --- | --- | --- | --- | --- | --- | --- | --- | --- | --- | --- | --- |
| CCc1c(C)[nH]c(=O)c(CSCCO)c1OC1CC(C)CC(C)C1 (stereo not shown) [Z121, 5-ethyl-6-methyl-4-[(3,5-dimethylcyclohexyl)oxy]-3-{[(2-hydroxyethyl)sulfanyl]methyl}pyridine-2(1H)-one] | 1.4 | < 1 | >27000 | 27000 | 14 | < 1 | independent of the preincubation time | significant increase in the RT activity | 133 to 134 | – | – | – | – |
| CCc1c(C)[nH]c(=O)c(CSCCOC(=O)CCl)c1OC1CC(C)CC(C)C1 (stereo not shown) [Z122] | 39.1 | – | – | – | – | – | increases with respect to the time of incubation | did not observe any increase in the RT activity | – | 1 | 27500 | < 1 | < 1 |
